# Assay results reported in US20060069132A1, “Azolecarboxamide herbicides” (priority 2004, published 2006).
# What was measured:
# lambsquarters = test: Test B pre-/postemergence herbicide test; assay type: in vivo, Chenopodium album; details: for Lambsquarters plant response rating: postemergence, visual rating, scale 0 (no effect) to 100 (complete control)
# Method in brief: (§1)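 Pre: seeds sown, then sprayed. Post: 1–4-leaf plants (2–18 cm) sprayed at the same time. Paddy: flooded, treated at 2-leaf stage. Formulation: non-phytotoxic solvent with surfactant. Greenhouse 13–15 days; visual 0–100 score relative to controls.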
# Surinam grass = test: Test B pre-/postemergence herbicide test; assay type: in vivo, Urochloa decumbens; details: for Plant response rating, Surinam Grass: preemergence; for Surinam Grass plant response rating: postemergence, visual rating, scale 0 (no effect) to 100 (complete control)
# Method in brief: as §1
# blackgrass = test: Test B postemergence herbicide test; assay type: in vivo, Alopecurus myosuroides; details: postemergence, visual rating, scale 0 (no effect) to 100 (complete control)
# Method in brief: (§2)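 Read-out: visual comparison with controls, scored 0 to 100, where 100 means complete control and 0 no effect. Formulated chemicals were applied postemergence to plants 2–18 cm tall (1- to 4-leaf), or to flooded-paddy plants at the 2-leaf stage, then held 13 to 15 days under glass.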
# rice [1] = test: Test B flooded paddy test; assay type: in vivo, Oryza sativa; details: 1000 g ai/ha, visual rating, scale 0 to 100 (0 no effect, 100 complete control), 13 to 15 days
# Method in brief: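 Plants grow to 1- to 4-leaf stage (2–18 cm) for postemergence spraying, or to 2-leaf stage for the paddy test. Formulated compound is applied. Greenhouse holding lasts 13–15 days. Response is scored visually relative to controls, 0 no effect to 100 complete control; a dash means no result.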
# giant foxtail [2] = test: Test A pre-/postemergence herbicide test; assay type: in vivo, Setaria faberi
# Method in brief: (§3)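 Pre: seeded sandy loam, directed soil spray, compound in non-phytotoxic solvent + surfactant. Post: 1–2-leaf plants (2–10 cm), sprayed to runoff. Greenhouse ~10 d; visual injury vs untreated, 0–100 scale.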
# velvetleaf [3] = test: Test B pre-/postemergence herbicide test; assay type: in vivo, Abutilon theophrasti; details: for Plant response rating, Velvetleaf: preemergence; for Velvetleaf plant response rating: postemergence, visual rating, scale 0 (no effect) to 100 (complete control)
# Method in brief: as §1
# barnyardgrass [4] = test: Test B flooded paddy test; assay type: in vivo, Echinochloa crus-galli; details: 1000 g ai/ha, visual rating, scale 0 to 100 (0 no effect, 100 complete control), 13 to 15 days
# Method in brief: as §2
# corn = test: Test B pre-/postemergence herbicide test; assay type: in vivo, Zea mays; details: for Plant response rating, Corn: preemergence; for Corn plant response rating: postemergence, visual rating, scale 0 (no effect) to 100 (complete control)
# Method in brief: as §1
# barnyardgrass [5] = test: Test B pre-/postemergence herbicide test; assay type: in vivo, Echinochloa crus-galli; details: for Plant response rating, Barnyardgrass: preemergence; for Barnyardgrass plant response rating: postemergence, visual rating, scale 0 (no effect) to 100 (complete control)
# Method in brief: as §1
# rice [6] = test: Test B pre-/postemergence herbicide test; assay type: in vivo, Oryza sativa; details: preemergence
# Method in brief: as §1
# wheat = test: Test B postemergence herbicide test; assay type: in vivo, Triticum aestivum; design: key to Wheat plant response rating: 0 = no effect, 100 = complete control; details: postemergence, 500 g ai/ha; visual rating, scale 0 (no effect) to 100 (complete control)
# Method in brief: (§4)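 Greenhouse test; postemergence application to plants at 1–4 leaves (2–18 cm); paddy species at 2 leaves; evaluated visually vs controls at 13–15 days; scale 0–100 (100 = complete control).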
# [7] = test system: small flower umbrella sedge; test: Test B flooded paddy test; assay type: in vivo, Cyperus difformis; details: 1000 g ai/ha, visual rating, scale 0 to 100 (0 no effect, 100 complete control), 13 to 15 days
# Method in brief: as §2
# velvetleaf [8] = test: Test A pre-/postemergence herbicide test; assay type: in vivo, Abutilon theophrasti
# Method in brief: as §3
# wild oat = test: Test B postemergence herbicide test; assay type: in vivo, Avena fatua; details: postemergence, visual rating, scale 0 (no effect) to 100 (complete control)
# Method in brief: as §4
# cocklebur = test: Test B pre-/postemergence herbicide test; assay type: in vivo, Xanthium strumarium; details: for Plant response rating, Cocklebur: preemergence; for Cocklebur plant response rating: postemergence, visual rating, scale 0 (no effect) to 100 (complete control)
# Method in brief: as §1
# large crabgrass [9] = test: Test B pre-/postemergence herbicide test; assay type: in vivo, Digitaria sanguinalis; details: for Plant response rating, Crabgrass, Large: preemergence; for Crabgrass, Large plant response rating: postemergence, visual rating, scale 0 (no effect) to 100 (complete control)
# Method in brief: as §1
# pigweed = test: Test B pre-/postemergence herbicide test; assay type: in vivo, Amaranthus retroflexus; details: for Plant response rating, Pigweed: preemergence; for Pigweed plant response rating: postemergence, visual rating, scale 0 (no effect) to 100 (complete control)
# Method in brief: as §1
# redroot pigweed = test: Test A pre-/postemergence herbicide test; assay type: in vivo, Amaranthus retroflexus
# Method in brief: as §3
# large crabgrass [10] = test: Test A pre-/postemergence herbicide test; assay type: in vivo, Digitaria sanguinalis
# Method in brief: as §3
# ducksalad = test: Test B flooded paddy test; assay type: in vivo, Heteranthera limosa; details: 1000 g ai/ha, visual rating, scale 0 to 100 (0 no effect, 100 complete control), 13 to 15 days
# Method in brief: as §2
# morningglory [11] = test: Test A pre-/postemergence herbicide test; assay type: in vivo, Ipomoea spp.
# Method in brief: as §3
# barnyardgrass [12] = test: Test A pre-/postemergence herbicide test; assay type: in vivo, Echinochloa crus-galli
# Method in brief: as §3
# morningglory [13] = test: Test B pre-/postemergence herbicide test; assay type: in vivo, Ipomoea coccinea; details: for Plant response rating, Morningglory: preemergence; for Morningglory plant response rating: postemergence, visual rating, scale 0 (no effect) to 100 (complete control)
# Method in brief: as §1
# giant foxtail [14] = test: Test B pre-/postemergence herbicide test; assay type: in vivo, Setaria faberi; details: for Plant response rating, Foxtail, Giant: preemergence; for Foxtail, Giant plant response rating: postemergence, visual rating, scale 0 (no effect) to 100 (complete control)
# Method in brief: as §1
# [15] = 500 g ai/ha, visual rating 0-100, 0 no effect, 100 complete control
# [16] = 125 g ai/ha, 0 to 100 scale, 0 is no effect, 100 is complete control
# [17] = Postemergence, 500 g ai/ha, 0 to 100 scale, 0 no effect, 100 complete control
# [18] = Postemergence, 2000 g ai/ha, 0 to 100 scale, 0 no effect, 100 complete control
# [19] = Preemergence, 500 g ai/ha, visual rating, 0 to 100 scale (0 no effect, 100 complete control)
# [20] = Preemergence, 2000 g ai/ha, visual rating, 0 to 100 scale (0 no effect, 100 complete control)
# [21] = preemergence, 500 g ai/ha, visual injury, 0 to 100 scale (0 no effect, 100 complete control)
smiles,measurement,setting,value
CCn1nc(C(C)(C)C)cc1C(=O)Nc1cc(C(=O)OC)cc(C)n1 [Compound 148],Lambsquarters plant response rating,lambsquarters; 125 g ai/ha,10
same,Lambsquarters plant response rating,lambsquarters; 500 g ai/ha,10
same,"Plant response rating, Lambsquarters","lambsquarters; preemergence, 125 g ai/ha, 0 to 100 scale, 0 is no effect, 100 is complete control",0
same,"Plant response rating, Surinam Grass",Surinam grass; [15],0
same,Surinam Grass plant response rating,Surinam grass; 125 g ai/ha,10
same,Surinam Grass plant response rating,Surinam grass; 500 g ai/ha,10
same,"Plant response rating, Surinam Grass",Surinam grass; [16],0
same,Blackgrass plant response rating,blackgrass; 125 g ai/ha,0
same,Blackgrass plant response rating,blackgrass; 500 g ai/ha,0
same,Rice plant response rating,rice [1],0
same,"Foxtail, Giant plant response rating",giant foxtail [2]; [17],15
same,"Plant response rating, Foxtail, Giant",giant foxtail [2]; [18],15
same,"Foxtail, Giant plant response rating",giant foxtail [2]; [19],0
same,"Foxtail, Giant plant response rating",giant foxtail [2]; [20],10
same,"Plant response rating, Velvetleaf",velvetleaf [3]; [15],0
same,Velvetleaf plant response rating,velvetleaf [3]; 125 g ai/ha,10
same,Velvetleaf plant response rating,velvetleaf [3]; 500 g ai/ha,10
same,"Plant response rating, Velvetleaf",velvetleaf [3]; [16],0
same,Barnyardgrass plant response rating,barnyardgrass [4],20
same,"Plant response rating, Corn",corn; [15],0
same,Corn plant response rating,corn; 125 g ai/ha,10
same,Corn plant response rating,corn; 500 g ai/ha,10
same,"Plant response rating, Corn",corn; [16],0
same,"Plant response rating, Barnyardgrass",barnyardgrass [5]; [15],10
same,Barnyardgrass plant response rating,barnyardgrass [5]; 125 g ai/ha,0
same,Barnyardgrass plant response rating,barnyardgrass [5]; 500 g ai/ha,20
same,"Plant response rating, Barnyardgrass",barnyardgrass [5]; [16],0
same,"Plant response rating, Rice",rice [6]; [15],10
same,"Plant response rating, Rice",rice [6]; [16],0
same,Wheat plant response rating,wheat,30
same,"Sedge, Umbrella plant response rating",[7],70
same,Velvetleaf plant response rating,velvetleaf [8]; [17],20
same,"Plant response rating, Velvetleaf",velvetleaf [8]; [18],15
same,Velvetleaf plant response rating,velvetleaf [8]; [20],10
same,Velvetleaf plant response rating,velvetleaf [8]; [21],0
same,"Oat, Wild plant response rating",wild oat; 125 g ai/ha,10
same,"Oat, Wild plant response rating",wild oat; 500 g ai/ha,10
same,"Plant response rating, Cocklebur",cocklebur; [15],0
same,Cocklebur plant response rating,cocklebur; 125 g ai/ha,20
same,Cocklebur plant response rating,cocklebur; 500 g ai/ha,70
same,"Plant response rating, Cocklebur",cocklebur; [16],0
same,"Plant response rating, Crabgrass, Large",large crabgrass [9]; [15],0
same,"Crabgrass, Large plant response rating",large crabgrass [9]; 125 g ai/ha,10
same,"Crabgrass, Large plant response rating",large crabgrass [9]; 500 g ai/ha,10
same,"Plant response rating, Crabgrass, Large",large crabgrass [9]; [16],0
same,"Plant response rating, Pigweed",pigweed; [15],0
same,Pigweed plant response rating,pigweed; 125 g ai/ha,10
same,Pigweed plant response rating,pigweed; 500 g ai/ha,20
same,"Plant response rating, Pigweed",pigweed; [16],0
same,Pigweed plant response rating,redroot pigweed; [17],0
same,"Plant response rating, Pigweed",redroot pigweed; [18],15
same,Pigweed plant response rating,redroot pigweed; [20],25
same,Pigweed plant response rating,redroot pigweed; [21],0
same,"Crabgrass, Large plant response rating",large crabgrass [10]; [17],5
same,"Plant response rating, Crabgrass, Large",large crabgrass [10]; [18],10
same,"Crabgrass, Large plant response rating",large crabgrass [10]; [19],0
same,"Crabgrass, Large plant response rating",large crabgrass [10]; [20],15
same,Ducksalad plant response rating,ducksalad,0
same,Morningglory plant response rating,morningglory [11]; [17],15
same,"Plant response rating, Morningglory",morningglory [11]; [18],10
same,Morningglory plant response rating,morningglory [11]; [19],0
same,Morningglory plant response rating,morningglory [11]; [20],5
same,Barnyardgrass plant response rating,barnyardgrass [12]; [17],20
same,"Plant response rating, Barnyardgrass",barnyardgrass [12]; [18],25
same,Barnyardgrass plant response rating,barnyardgrass [12]; [19],0
same,Barnyardgrass plant response rating,barnyardgrass [12]; [20],20
same,"Plant response rating, Morningglory",morningglory [13]; [15],0
same,Morningglory plant response rating,morningglory [13]; 125 g ai/ha,10
same,Morningglory plant response rating,morningglory [13]; 500 g ai/ha,10
same,"Plant response rating, Morningglory",morningglory [13]; [16],0
same,"Plant response rating, Foxtail, Giant",giant foxtail [14]; [15],20
same,"Foxtail, Giant plant response rating",giant foxtail [14]; 125 g ai/ha,10
same,"Foxtail, Giant plant response rating",giant foxtail [14]; 500 g ai/ha,10
same,"Plant response rating, Foxtail, Giant",giant foxtail [14]; [16],0
